Source: patent US20230083015A1, “SMALL MOLECULE DEGRADERS OF STAT3” (THE REGENTS OF THE UNIVERSITY OF MICHIGAN, priority 2019, published 2023)

Key:
Assay type in all cases: cell-based
[1] = molecular target: T1, mutated STAT3 proteins (Homo sapiens, UniProt P40763, Y705F); test: Western blotting of total STAT3 and p-STAT3 (Y705) in DLD-1 and DLD-1 (Y705F) cells
T1 construct: endogenous in cells; host or cells: DLD-1 (Y705F)
Experimental: FIG. 9 is an image showing the Western blotting analysis of total STAT3 protein and phosphorylated STAT3 (Y705) in DLD-1 and DLD-1 (Y705F) cells treated with Cpd.
(§1) In vitro cultured cells or xenograft tumors were lysed 1× Cell Lysis Buffer (Cell Signaling Technology, #9803), resolved by SDS-PAGE NuPAGE gel (Thermo Fisher Scientific), and transferred to a PVDF membrane (Bio Rad). For chemiluminescence immunoblotting, membranes were blocked for 1 h using 5% Blotting-Grade Blocker (#1706404, Bio Rad) in 1× Tris-buffered saline with Tween 20 (TBST, Pierce). Antibodies used were: rabbit mAbs for STAT3 (Cell Signaling Technology, #4368, #12640) and p-STAT3 (Y705) (Cell Signaling Technology, #9245, #52075). HRP conjugated goat anti-rabbit IgG (H+L) (#A27036) secondary antibodies was from Thermo Fisher Scientific. GAPDH (Santa Cruz Technology, sc-47724HRP) and actin (Santa Cruz Technology, sc-8432HRP, sc-47778HRP) were loading controls. For fluorescent immunoblotting, membranes were blocked using Odyssey TBS Blocker Buffer (LI-COR). IRDye 680RD and 800CW Dye-labeled secondary antibodies (LI-COR) were used. The washed membranes were scanned using Odyssey CLx imager (LI-COR). The intensity of Western blot signaling was quantitated using the Odyssey software.

[2] = system: ALCL and AML cell lines expressing high levels of STAT3; test: Cell growth inhibition in ALCL and AML cell lines
From the text: FIG. 12 is a table showing that Cpd.

[3] = molecular target: T2, STAT3 (Homo sapiens, UniProt P40763); test: Western blotting of total STAT1, STAT2, STAT3, STAT4, STAT5 and STAT6 protein in SU-DHL-1 and SUP-M2 cells; set-up: endogenous in cells
Experimental: FIG. 11 is an image showing the Western blotting analysis of total STAT1, STAT2, STAT3, STAT4, STAT5, and STAT6 protein in SU-DHL-1 and SUP-M2 cells treated with Cpd. Nos. 36 and 37. Cpd.
as §1

[4] = molecular target: T2, STAT3; test: Western blotting of total STAT1, STAT2, STAT3, STAT5 and STAT6 protein in Molm-16 cells; set-up: endogenous in cells; host or cells: MOLM-16
Experimental: FIG. 10 is an image showing the Western blotting analysis of total STAT1, STAT2, STAT3, STAT5, and STAT6 protein in Molm-16 cells treated with Cpd. No. 36. Cpd.
as §1

T2 sequence (P40763 whole entry): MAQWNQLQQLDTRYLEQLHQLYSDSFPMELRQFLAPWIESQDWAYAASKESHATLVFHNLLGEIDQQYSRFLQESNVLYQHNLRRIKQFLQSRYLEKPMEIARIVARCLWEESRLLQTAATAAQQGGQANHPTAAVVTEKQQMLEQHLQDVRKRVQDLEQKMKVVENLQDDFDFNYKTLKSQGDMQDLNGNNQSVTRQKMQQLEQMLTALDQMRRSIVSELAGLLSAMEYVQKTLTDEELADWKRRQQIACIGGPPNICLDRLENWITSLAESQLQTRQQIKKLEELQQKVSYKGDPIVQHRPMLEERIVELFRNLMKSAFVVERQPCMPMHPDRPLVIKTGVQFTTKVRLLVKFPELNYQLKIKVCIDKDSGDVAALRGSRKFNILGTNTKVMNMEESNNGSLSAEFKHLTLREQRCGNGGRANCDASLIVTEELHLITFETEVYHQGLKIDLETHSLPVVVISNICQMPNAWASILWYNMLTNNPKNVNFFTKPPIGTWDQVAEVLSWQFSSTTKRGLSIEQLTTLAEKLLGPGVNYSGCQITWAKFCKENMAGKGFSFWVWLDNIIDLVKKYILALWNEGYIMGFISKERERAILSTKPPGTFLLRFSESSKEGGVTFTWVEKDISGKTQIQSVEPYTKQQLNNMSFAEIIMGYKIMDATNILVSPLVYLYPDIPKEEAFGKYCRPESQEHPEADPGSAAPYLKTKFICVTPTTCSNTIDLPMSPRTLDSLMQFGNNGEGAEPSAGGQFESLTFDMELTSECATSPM
T1 sequence (P40763 2-770 Y705F): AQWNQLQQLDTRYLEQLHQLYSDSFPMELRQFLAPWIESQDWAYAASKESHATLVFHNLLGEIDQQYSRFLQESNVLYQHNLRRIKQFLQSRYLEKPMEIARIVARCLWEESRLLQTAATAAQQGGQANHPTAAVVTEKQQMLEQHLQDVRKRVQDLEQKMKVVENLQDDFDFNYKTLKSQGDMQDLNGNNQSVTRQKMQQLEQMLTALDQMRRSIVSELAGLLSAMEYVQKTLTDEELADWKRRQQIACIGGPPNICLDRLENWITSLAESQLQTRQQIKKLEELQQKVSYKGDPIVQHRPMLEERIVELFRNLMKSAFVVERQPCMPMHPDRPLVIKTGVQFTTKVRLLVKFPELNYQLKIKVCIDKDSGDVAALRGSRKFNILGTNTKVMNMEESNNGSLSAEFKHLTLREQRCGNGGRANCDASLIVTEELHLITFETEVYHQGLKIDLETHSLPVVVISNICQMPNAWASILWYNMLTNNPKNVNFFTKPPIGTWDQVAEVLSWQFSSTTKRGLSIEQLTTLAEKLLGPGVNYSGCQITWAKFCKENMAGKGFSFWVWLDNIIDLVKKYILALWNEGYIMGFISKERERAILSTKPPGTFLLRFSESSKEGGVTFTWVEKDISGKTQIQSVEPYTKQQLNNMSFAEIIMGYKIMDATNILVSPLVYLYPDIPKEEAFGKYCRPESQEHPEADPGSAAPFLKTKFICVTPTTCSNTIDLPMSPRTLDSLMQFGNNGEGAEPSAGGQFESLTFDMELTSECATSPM

## NC(=O)CC[C@H](NC(=O)[C@@H]1CC[C@@H]2CCN(C(=O)CCCCCC#Cc3cccc4c3CN(C3CCC(=O)NC3=O)C4=O)C[C@H](NC(=O)c3cc4cc(C(F)(F)P(=O)(O)O)ccc4[nH]3)C(=O)N21)C(=O)NC(c1ccccc1)c1ccccc1 (stereo partly drawn) [Cpd. No. 36, ((2-(((5S,8S,10aR)-8-(((S)-5-amino-1-(benzhydrylamino)-1,5-dioxopentan-2-yl)carbamoyl)-3-(8-(2-(2,6-dioxopiperidin-3-yl)-1-oxoisoindolin-4-yl)oct-7-ynoyl)-6-oxodecahydropyrrolo[1,2-a][1,5]diazocin-5-yl)carbamoyl)-1H-indol-5-yl)difluoromethyl)phosphonic Acid]
[1]
  degradation of mutated STAT3 protein (Western blot): degrades mutated STAT3 proteins
[2]
  cell growth inhibition: inhibits cell growth
[3]
  selectivity of STAT3 degradation over other STAT members (Western blot): specifically degrades STAT3 protein over other STAT members
[4]
  selectivity of STAT3 degradation over other STAT members (Western blot): specifically degrades STAT3 protein over other STAT members
